# Experimental data taken from patent US8518965B2, “Compositions and methods for treating cancer” (Trustees of Dartmouth College, priority 2009, dated 2013).
# Read-outs that look alike come from different tables or passages of the source.
# Key:
# [1] = Solubility in solvents and buffers; assay type: physicochemical; conditions: for solubility: read-out: Solubility (mg/ml), 25° C.
# Method: Characterization of D11B. The solubility of D11B in different solvents was analyzed (Table 1).
# (§1) The solubility of D11B in various combinations of solvents was also analyzed. […] For the analysis of co-solvents, stock solutions were prepared by dissolving D11B in a corresponding solvent. Stock solutions of D11B in dimethylsulfoxide (DMSO) were prepared at 25° C., and stock solutions of D11B in PEG-400, CREMOPHOR® EL and Polysorbate 80 were prepared at 100° C. Injection solutions, in water (0.3 mg/ml), were prepared by dropwise addition of the stock solution to a required volume of vigorously stirred hot water (80° C.).
# The solubility of D11B×2AH in DMSO, PEG-400, EtOH, and buffer was determined (Table 7).
# [2] = in vivo; conditions: C3H/HeN, mouse, ip
# Method: The MTD40 (maximum tolerated dose at day 40) values were determined on normal C3H/HeN mice using standard procedures. […] The result of this exercise was two dosages, one apparently nonlethal and the other lethal, if severe and irreversible toxicity occurred and euthanasia was required. Six mice were dosed at each dosage. If no severe and irreversible toxicity occurred at the lower dosage and at least one with severe and irreversible toxicity at the higher dose, then the lower dose was considered to be the MTD.
# Compounds were administered to C3H/HeN mice by intraperitoneal injection (5% alcohol, 5% CREMOPHOR® EL, and 90% saline, 0.5 ml/20 gram, single injection). Drug toxicity was evaluated on mice checked daily for 40 days. The toxicity parameters reported were the MTD40. […] At the end of experiment, all mice were euthanized.
# The toxicity parameters reported were the MTD40. At the end of experiment, all mice will be euthanized.
# [3] = test system: SF 295 human glioblastoma xenografts; assay: In vivo efficacy, SF 295 xenografts in nude mice; conditions: D11B 382 mg/kg single i.p. injection
# Method: In vivo anticancer efficacy studies were performed on nude mice (nu/nu genotype) bearing SF 295 human glioblastoma xenografts. […]. Treatment was initiated at that time, with the first day of treatment designated as day 0 for all calculations and plots. […] Compound doses were 382 mg/kg for D11B, 212 mg/kg for D15B, 5 mg/kg for D25B, and 10.6 mg/kg for D35B. Mice in the control group bearing 3 mm diameter tumors was treated with vehicle alone. After treatment, tumor sizes were measured by caliper every day. Daily measurements of the tumor diameters (d1, d2) in two orthogonal directions was used to calculate the tumor volume (tumor volume=π/6{(d1+d2)/2}^3) using the approximation that the tumors were spherical. The values of time (days) required to grow the tumor to twice their initial size after various treatments was calculated as tumor doubling time (TDT) for evaluating the treatment effects. Survival times and curative effects after treatment were also observed and recorded.
# [4] = State of stock and injection solutions in water + co-solvents; assay type: physicochemical
# Method: as §1
# Additional solubility determinations were carried out with D11B×2AH in water+co-solvents. For this analysis, stock solutions were prepared by dissolving D11B×2AH in a corresponding solvent. Stock solutions of D11B×2AH in DMSO were prepared at 25° C. and stock solutions of D11B×2AH in PEG-400 were prepared at 100° C.
# Injection solutions in water (0.3 mg/ml) were prepared by dropwise addition of each stock solution to a required volume of vigorously stirred water.
# [5] = test system: HCT116 human colon cancer xenografts; assay: In vivo efficacy, HCT116 xenografts in nude mice; parameters: species or system nude mice (nu/nu genotype); conditions: single i.p. injection
# Method: This in vivo anticancer efficacy study was performed on nude mice (nu/nu genotype) bearing HCT116 human colon cancer xenografts. These human tumors grew exponentially following implantation into the flanks of the mice and reached a diameter of 3 mm. Treatment was initiated at that time, with the first day of treatment designated as day 0 for all calculations and plots. […] Mice in the control group, bearing 3 mm diameter tumors, were treated with vehicle alone. After treatment, tumor sizes were measured by caliper every day. Daily measurement of the tumor diameters (d1, d2) in two orthogonal directions was used to calculate the tumor volume (tumor volume=π/6{(d1+d2)/2}^3) using the approximation that the tumors were spherical. The values of time (days) required to grow the tumor to the size of 1,000 cu. mm after various treatments and tumor growth delay percentage were calculated for evaluating the treatment effects. Survival times and tumor inhibitory effects on day 20 after treatment were also observed and recorded.
# [6] = test system: NCI/ADR-RES human breast cancer cells; assay: Colony formation assay, NCI/ADR-RES cells; assay type: cell-based; conditions: 72 hours with compound, colonies counted after 14 days
# Method: NCI/ADR-RES human breast cancer cells (500 cells), HCT116 human colon cancer cells (400 cells) or SF 295 human glioblastoma cells (1000 cells) were plated in 60 mm Petri dishes containing 2.7 ml of medium (modified McCoy's 5a medium containing 10% fetal bovine serum and 100 units/ml penicillin and 100 μg/ml streptomycin). The cells were incubated in a CO2 incubator at 37° C. for 5 hours for attachment to the bottom of Petri dishes. Compounds were prepared fresh in medium at ten times the final concentration, and then 0.3 ml of this stock solution was added to the 2.7 ml of medium in the dish. The cells were then incubated with compounds for 72 hours at 37° C. At the end of incubation, the compound-containing media were decanted, the dishes were rinsed with 4 ml of Hank's Balance Salt Solution (HBSS), 5 ml of fresh medium was added, and the dishes were returned to the incubator for colony formation. The cell colonies were counted using a colony counter after incubation for 14 days for NCI/ADR-RES cells and 10 days for HCT116 cells and SF 295 cells. Cell survival was calculated and the IC50 values (the drug concentration producing 50% inhibition of colony formation) were determined for each tested compound.
smiles,measurement,setting,value
c1ccc2c(Nc3ccc(Oc4ccc(Nc5c6ccccc6nc6ccccc56)cc4)cc3)c3ccccc3nc2c1 [Compound D11B],Solubility in 5% dextrose in water,[1]; 5% dextrose in water,negligible
same,solubility,"[1]; AcOH, 25 °C, organic solvent or mixture, AcOH",~0.01 mg/mL
same,solubility,"[1]; AcOH-H2O (1-1), 25 °C, aqueous with cosolvent or surfactant or cyclodextrin, AcOH—H2O (1-1)",> 1.1 mg/mL
same,solubility,"[1]; AcOH-H2O (9-1), 25 °C, organic solvent or mixture, AcOH—H2O (9-1)",> 13 mg/mL
same,solubility,"[1]; CHCl3, 25 °C, organic solvent or mixture, CHCl3",0.12 mg/mL
same,solubility,"[1]; DMF, 25 °C, organic solvent or mixture, DMF",~20 mg/mL
same,solubility,"[1]; DMSO, 25 °C, organic solvent or mixture, DMSO",~100 mg/mL
same,"Solubility (mg/ml), 25° C.",[1]; H2O,negligible
same,solubility,"[1]; MeOH, 25 °C, organic solvent or mixture, MeOH",~1 mg/mL
same,solubility,"[1]; Na2HPO4-citric acid buffer, 25 °C, pH 4, aqueous buffer, Na2HPO4-citric acid buffer (pH = 4), first entry",< 0.1 mg/mL
same,solubility,"[1]; Na2HPO4-citric acid buffer, 25 °C, pH 4, aqueous buffer, Na2HPO4-citric acid buffer (pH = 4), second entry",< 0.1 mg/mL
same,solubility,"[1]; PEG-400, 25 °C, organic solvent or mixture, PEG-400, heating to 100° C. was required",~12 mg/mL
same,Solubility in saline,[1]; saline (0.9% NaCl in water),negligible
same,MTD at 40 days,[2],450 mg/kg
same,Curative effect,[3],one mouse was even cured
same,Ratio of TDTs (D11B treated over control),[3],9.8
same,TDT (tumor doubling time),[3]; control group 2.5 days,24.5 days
same,Mean survival time,[3]; control group 40.5 days,≥ 58.67 days
same,State of the stock solution,"[4]; D11B in DMSO, 20 mg/ml",clear
same,State of the stock solution,"[4]; D11B in DMSO, 30 mg/ml",clear
same,State of the stock solution,"[4]; D11B in DMSO, 40.5 mg/ml",clear
same,State of the stock solution,"[4]; D11B in DMSO, 50 mg/ml",clear
same,State of the stock solution,"[4]; D11B in DMSO, 70 mg/ml",clear
same,State of the stock solution,"[4]; D11B in DMSO, 100 mg/ml",clear
same,State of the injection solution,"[4]; D11B in H2O-CREMOPHOR EL, 0.3 mg/ml, CREMOPHOR EL 1 wt. %",clear
same,State of the injection solution,"[4]; D11B in H2O-PEG-400 0.3 mg/ml, stock 12 mg/ml, PEG-400 2.82 wt. %",clear^b
same,State of the injection solution,"[4]; D11B in H2O-PEG-400 0.3 mg/ml, stock 20 mg/ml, PEG-400 1.7 wt. %",clear^a
same,State of the injection solution,"[4]; D11B in H2O-Polysorbate 80, 0.3 mg/ml, Polysorbate 80 1 wt. %",clear
same,State of the injection solution,"[4]; D11B in H2O—DMSO 0.3 mg/ml, stock 20 mg/ml, DMSO 1.65 wt. %",clear
same,State of the injection solution,"[4]; D11B in H2O—DMSO 0.3 mg/ml, stock 30 mg/ml, DMSO 1.1 wt. %",clear
same,State of the injection solution,"[4]; D11B in H2O—DMSO 0.3 mg/ml, stock 40.5 mg/ml, DMSO 0.83 wt. %",clear
same,State of the injection solution,"[4]; D11B in H2O—DMSO 0.3 mg/ml, stock 50 mg/ml, DMSO 0.66 wt. %",clear
same,State of the injection solution,"[4]; D11B in H2O—DMSO 0.3 mg/ml, stock 70 mg/ml, DMSO 0.47 wt. %",clear
same,State of the injection solution,"[4]; D11B in H2O—DMSO 0.3 mg/ml, stock 100 mg/ml, DMSO 0.33 wt. %",clear
same,State of the stock solution,"[4]; D11B in PEG-400, 12 mg/ml",clear
same,State of the stock solution,"[4]; D11B in PEG-400, 20 mg/ml",gel
same,State of the stock solution,"[4]; D11B in PEG-400, 40 mg/ml",gel
same,State of the stock solution,"[4]; D11B in Polysorbate 80, 32.25 mg/ml",clear
same,Mean survival time,[5]; control group 19.7 days,40.5 days
same,Tumor growth delay percentage,"[5]; time for growth up to the tumor volume of 1,000 cu. mm",131%
same,Inhibition ratio,[5]; tumor growth on day 20 after drug administration,4.65
same,IC50,[6],1310 nM
